This assay concerns the target Short transient receptor potential channel 4 (Mus musculus) (UniProt Q9QUQ5). The experiment in a line: TRPC4 positive allosteric modulators, dose response, cell-based, HEK293 TRPC4/mu-opioid, Fluo-4 calcium, EC20 DAMGO (AID 434941).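 Further: calcium entry triggered by an EC20 dose of DAMGO at the co-expressed mu-opioid receptor.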 To be noted: HEK293 TRPC4/mu-opioid cells, Fluo-4 calcium fluorescence.

Chain of Short transient receptor potential channel 4 (Mus musculus) (Q9QUQ5 whole entry, looked up): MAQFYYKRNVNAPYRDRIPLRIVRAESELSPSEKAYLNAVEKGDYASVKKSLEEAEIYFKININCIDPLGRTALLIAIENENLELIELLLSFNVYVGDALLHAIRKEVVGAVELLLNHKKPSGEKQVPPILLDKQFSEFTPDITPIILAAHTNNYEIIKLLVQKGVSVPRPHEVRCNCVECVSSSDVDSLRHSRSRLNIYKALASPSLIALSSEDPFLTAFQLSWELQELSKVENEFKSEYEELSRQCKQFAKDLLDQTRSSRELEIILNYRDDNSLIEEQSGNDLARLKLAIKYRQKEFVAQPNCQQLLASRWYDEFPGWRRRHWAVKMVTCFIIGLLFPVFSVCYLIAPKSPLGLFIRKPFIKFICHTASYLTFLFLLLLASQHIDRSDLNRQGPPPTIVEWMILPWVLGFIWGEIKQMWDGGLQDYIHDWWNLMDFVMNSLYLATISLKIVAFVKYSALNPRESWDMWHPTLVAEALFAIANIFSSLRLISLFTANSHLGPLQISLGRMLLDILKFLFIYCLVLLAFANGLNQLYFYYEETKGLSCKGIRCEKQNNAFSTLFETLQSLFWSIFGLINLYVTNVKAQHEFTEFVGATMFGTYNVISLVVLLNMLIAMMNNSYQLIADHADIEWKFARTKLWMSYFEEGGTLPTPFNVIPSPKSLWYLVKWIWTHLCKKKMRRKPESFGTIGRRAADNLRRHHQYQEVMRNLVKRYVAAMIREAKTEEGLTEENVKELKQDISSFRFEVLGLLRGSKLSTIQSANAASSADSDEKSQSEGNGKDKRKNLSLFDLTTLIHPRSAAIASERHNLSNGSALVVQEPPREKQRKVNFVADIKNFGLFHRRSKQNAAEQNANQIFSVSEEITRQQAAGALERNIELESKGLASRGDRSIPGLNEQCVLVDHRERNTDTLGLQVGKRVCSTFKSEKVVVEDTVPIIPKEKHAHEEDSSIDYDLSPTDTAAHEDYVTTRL

As to `Cn1c(O)c(/C=N/NC(=O)c2cc3ccccc3cc2O)c2ccccc21`, the EC50 (in general, the midpoint of the concentration-response curve) was 5.96 µM.

(Values after PubChem BioAssay AID434941 (Johns Hopkins Ion Channel Center, 2010).)
